{
  "source": "patent US20240158447A1",
  "about": "“PEPTIDES FOR USE IN THE TREATMENT OR PREVENTION OF MYOCARDIAL DAMAGE” (THE UNIVERSITY OF WESTERN AUSTRALIA, priority 2020, published 2024)",
  "key": {"[1]": {"tested_on": "cTnI.2 wt myocytes", "assay": "Flavoprotein oxidation response to BayK(−), wt myocytes (Example 10)", "assay_type": "cell-based, mouse", "details": "10 μM BayK(−)", "protocol": "In this experiment wt myocytes were pre-exposed to 0.1, 0.5 or 1 μM for 20 min and assessed changes in flavoprotein oxidation and ψm.\nMeasurement of mitochondrial flavoprotein oxidation: Flavoprotein autofluorescence was used to measure flavoprotein oxidation based on previously described methods (Yaniv Y, Juhaszova M, Lyashkov A E, Spurgeon H A, Sollott S J, Lakatta E G. Ca2+-regulated-cAMP/PKA signaling in cardiac pacemaker cells links ATP supply to demand. J Mol Cell Cardiol. 2011; 51(5):740-8). […] Fluorescent images were acquired at 1 min intervals with 200 ms exposure. Metamorph 6.3 (Version 7.10.3) was used to quantify the signal by manually tracing myocytes. An equivalent region not containing cells was used as background and was subtracted. Fluorescence values recorded over 5 min before and 5 min after addition of drugs were averaged and alterations in fluorescent ratios reported as the percentage increase from the basal average. FCCP (50 μM) and NaCN (40 mM) was added at the end of each experiment to achieve a respective maximal and minimal fluorescence value indicative of maximal and minimal flavoprotein oxidation.\nThe ICA-L agonist BayK(−) was used to activate the channel and assess mitochondrial function. […] FIG. 10 presents the mean+/−SEM of flavoprotein fluorescence from cTnI.2 wt and cTnI-G2035 mutant myocytes before and after exposure to 10 μM BayK(−) in the presence of 1 μM AID(S)-TAT, and increasing concentrations of variant peptides as indicated. N=no. of animals, n=no. of cardiomyocytes. P values shown compared with AID(S)-TAT as determined by the Kruskal-Wallis test."}, "[2]": {"tested_on": "wild type cardiac myocytes", "assay": "Intracellular superoxide (DHE) after H2O2 in cardiac myocytes", "assay_type": "cell-based, mouse", "details": "20 min incubation with 0.5-1 μM peptide; 30 μM H2O2 5 min; FIG. 3(b)", "protocol": "Adult male C57BL/6J mice were anesthetized with pentobarbitone sodium (240 mg/kg) via intraperitoneal injection prior to excision of the heart. Ventricular myocytes were isolated. Mouse hearts were cannulated onto a Langendorff apparatus via the aorta and perfused retrogradely with Krebs-Henseleit Buffer (KHB) containing (in mM): 120 NaCl, 25 NaHCO3, 4.8 KCl, 2.2 MgSO4, 1.2 NaH2PO4 and 11 glucose (pH=7.35 with O2/CO2 at 37° C.) for 4 min at 37° C. Hearts were then perfused with KHB supplemented with 2.4 mg/ml collagenase B for 3 min, then 8 min perfusion in the presence of 40 μM calcium. Following perfusion, aorta and atria were removed, and ventricles gently teased apart and triturated to dissociate myocytes into suspension. […]\nAll in vitro studies were performed in freshly isolated myocytes at 37° C. […] Following a 20 min incubation with 0.5-1 μM AID(S)-TAT, AID-TAT, peptide 6 or peptide 7, fluorescent signal of individual myocytes was quantified using Metamorph 6.3 to measure signal intensity of manually traced cell regions. […]\nSuperoxide generation was assessed in cardiac myocytes using the fluorescent indicator dihydroethidium (DHE, 5 μM, 515-560 nm ex filter, 590 long pass em, Merck). […] Fluorescence was reported as percentage change in the slope of the signal measured at 20-40 min (treatment) over 1-10 min (pre-treatment)."}},
  "data": [
    {"substance": "AIDP7-TAT: QQQEEDLKGYLDWITQAE with TAT sequence", "values": [
      {"measurement": "BayK(−) induced increase in flavoprotein oxidation", "setting": "[1]; 0.5 μM peptide 20 min, FIG. 10B", "result": "effective"},
      {"measurement": "BayK(−) induced increase in flavoprotein oxidation", "setting": "[1]; 1 μM peptide 20 min, FIG. 10A", "result": "just as effective at attenuating the response in wt myocytes as the original AID-TAT"},
      {"measurement": "H2O2 induced superoxide production (DHE)", "setting": "[2]", "result": "reduced the generation of superoxide in a statistically significant manner"}
    ]}
  ]
}
